Measured values reported in patent US20050181376A1, “Antisense modulation of microsomal triglyceride transfer protein expression” (ISIS Pharmaceuticals, Inc., priority 2001, published 2005).
Strand notation (5' to 3'): a small letter for the sugar, then the base; units joined by * are phosphorothioate-linked, units joined directly phosphodiester-linked; [ ] holds rarer units or linkages, { } end groups; capitals alone tell only the bases. e = 2'-O-(2-methoxyethyl) (MOE); [5mC] = 5-methylcytosine; d = 2'-deoxy (DNA)

Test system: mouse microsomal triglyceride transfer protein mRNA
Experiment: Antisense inhibition of mouse microsomal triglyceride transfer protein mRNA levels in primary hepatocytes, quantitative real-time PCR
Format: cell-based
Parameters: concentration or dose not given beside the values
Details: averages from two experiments
Method: Primary mouse hepatocytes were prepared from CD-1 mice purchased from Charles River Labs (Wilmington, Mass.) and were routinely cultured in Hepatocyte Attachment Media (Gibco) supplemented with 10% Fetal Bovine Serum (Gibco/Life Technologies, Gaithersburg, Md.), 250 nM dexamethasone (Sigma), and 10 nM bovine insulin (Sigma). Cells were seeded into 96-well plates (Falcon-Primaria #3872) at a density of 10000 cells/well for use in RT-PCR analysis.
Cells were harvested 16-24 hours after oligonucleotide treatment.
All cytidine residues are 5-methylcytidines. […] Data are averages from two experiments. If present, “N.D.” indicates “no data”.

“CTCTGATGTCGTTGCTTGCA (all phosphorothioate, sugars by position and methylation of C not given here; 2'-MOE wings and deoxy gap) [ISIS 144485, 2′-MOE gapmer phosphorothioate antisense oligonucleotide to mouse MTP]” was tested. Which “% INHIB (inhibition of mouse microsomal triglyceride transfer protein mRNA levels)” value (from here on “% INHIB”) did it give?
Its value is “at least 30%”.

“144493 (eG*e[5mC]*e[5mC]*eA*eG*dT*dA*dT*dA*dG*dG*d[5mC]*dA*dG*dA*eA*eG*eA*eG*eG; antisense) [compound 144493]” was tested. Which “% INHIB” value did it give?
The value was 24%.

For “GACCACCCTGGATCTCCATA (all phosphorothioate, sugars by position and methylation of C not given here; 2'-MOE wings and deoxy gap) [ISIS 144501, 2′-MOE gapmer phosphorothioate antisense oligonucleotide to mouse MTP]”, which “% INHIB” value is on record?
The value was “at least 30%”.

With “144472 (eG*e[5mC]*e[5mC]*e[5mC]*eT*dG*dG*dA*dA*dG*dA*dT*dG*d[5mC]*dT*e[5mC]*eT*eT*e[5mC]*eT; antisense) [compound 144472]” as the substance, how does the “% INHIB” value read?
Its value is 0%.

How did the “% INHIB” value turn out when “144491 (e[5mC]*eA*eG*e[5mC]*eA*dG*d[5mC]*dG*dG*d[5mC]*dA*dG*dT*dT*dG*eT*eG*e[5mC]*eG*e[5mC]; antisense) [compound 144491]” was run?
Its value is 26%.

How did the “% INHIB” value turn out when “144486 (eA*eT*eT*e[5mC]*eT*dG*dA*d[5mC]*dA*d[5mC]*dA*dG*d[5mC]*dT*dT*e[5mC]*e[5mC]*eT*eG*eA; antisense) [compound 144486]” was run?
The value was 34%.

For “GTTATCACCACAGCCACCCG (all phosphorothioate, sugars by position and methylation of C not given here; 2'-MOE wings and deoxy gap) [ISIS 144503, 2′-MOE gapmer phosphorothioate antisense oligonucleotide to mouse MTP]”, which “% INHIB” value is on record?
Its value is “at least 30%”.

How did the “% INHIB” value turn out when “GCTCGAGGACCTGTCCCACA (all phosphorothioate, sugars by position and methylation of C not given here; 2'-MOE wings and deoxy gap) [ISIS 144480, 2′-MOE gapmer phosphorothioate antisense oligonucleotide to mouse MTP]” was run?
Its value is “at least 30%”.

“CTGCAATTAAGCCTTCCAGC (all phosphorothioate, sugars by position and methylation of C not given here; 2'-MOE wings and deoxy gap) [ISIS 144496, 2′-MOE gapmer phosphorothioate antisense oligonucleotide to mouse MTP]” was tested. Which “% INHIB” value did it give?
The value was “at least 30%”.

For “144471 (e[5mC]*eA*eT*e[5mC]*eA*d[5mC]*d[5mC]*dA*dT*d[5mC]*dA*dG*dG*dA*dT*eT*e[5mC]*e[5mC]*eT*e[5mC]; antisense) [compound 144471]”, which “% INHIB” value is on record?
The value was 21%.

For “144508 (e[5mC]*eG*eT*e[5mC]*eA*dT*dA*dG*d[5mC]*dA*dT*dA*dT*d[5mC]*dG*eT*eT*e[5mC]*eT*eG; antisense) [compound 144508]”, which “% INHIB” value is on record?
Its value is 0%.

Which “% INHIB” value does the source give for “144502 (e[5mC]*eT*e[5mC]*eG*e[5mC]*dG*dA*dT*dA*d[5mC]*d[5mC]*dA*d[5mC]*dA*dG*eA*e[5mC]*eT*eG*eA; antisense) [compound 144502]” here?
Its value is 51%.

Which “% INHIB” value does the source give for “CAGAATGCCAGAGCCAGAGT (all phosphorothioate, sugars by position and methylation of C not given here; 2'-MOE wings and deoxy gap) [ISIS 144495, 2′-MOE gapmer phosphorothioate antisense oligonucleotide to mouse MTP]” here?
Its value is “at least 30%”.

How did the “% INHIB” value turn out when “144490 (eA*e[5mC]*eG*eA*eT*dT*d[5mC]*dT*dG*dG*dT*dG*dG*dT*dA*eT*eA*eT*e[5mC]*e[5mC]; antisense) [compound 144490]” was run?
Its value is 23%.

How did the “% INHIB” value turn out when “CAGCCTCAGCATACTTCAGA (all phosphorothioate, sugars by position and methylation of C not given here; 2'-MOE wings and deoxy gap) [ISIS 144488, 2′-MOE gapmer phosphorothioate antisense oligonucleotide to mouse MTP]” was run?
The value was “at least 30%”.

For “CCCTTTCACCACGCTGACAG (all phosphorothioate, sugars by position and methylation of C not given here; 2'-MOE wings and deoxy gap) [ISIS 144500, 2′-MOE gapmer phosphorothioate antisense oligonucleotide to mouse MTP]”, which “% INHIB” value is on record?
The value was “at least 30%”.

“144501 (eG*eA*e[5mC]*e[5mC]*eA*d[5mC]*d[5mC]*d[5mC]*dT*dG*dG*dA*dT*d[5mC]*dT*e[5mC]*e[5mC]*eA*eT*eA; antisense) [compound 144501]” was tested. Which “% INHIB” value did it give?
Its value is 52%.

“144467 (eG*e[5mC]*eT*e[5mC]*e[5mC]*d[5mC]*dT*d[5mC]*dT*dG*d[5mC]*d[5mC]*dA*d[5mC]*dA*eT*e[5mC]*e[5mC]*eA*eG; antisense) [compound 144467]” was tested. Which “% INHIB” value did it give?
Its value is 0%.

“CCCAGCACCTGGTTTGCCGT (all phosphorothioate, sugars by position and methylation of C not given here; 2'-MOE wings and deoxy gap) [ISIS 144477, 2′-MOE gapmer phosphorothioate antisense oligonucleotide to mouse MTP]” was tested. Which “% INHIB” value did it give?
The value was “at least 30%”.

“144499 (e[5mC]*eG*e[5mC]*eT*eG*dA*d[5mC]*dA*dG*dG*dG*dT*d[5mC]*dG*d[5mC]*e[5mC]*eG*eG*eA*eT; antisense) [compound 144499]” was tested. Which “% INHIB” value did it give?
The value was 38%.

Which “% INHIB” value does the source give for “CCCTGGTCTCTTCTGCAAGC (all phosphorothioate, sugars by position and methylation of C not given here; 2'-MOE wings and deoxy gap) [ISIS 144478, 2′-MOE gapmer phosphorothioate antisense oligonucleotide to mouse MTP]” here?
The value was “at least 30%”.

How did the “% INHIB” value turn out when “144506 (e[5mC]*eA*e[5mC]*eA*eT*d[5mC]*d[5mC]*dG*dG*d[5mC]*d[5mC]*dA*d[5mC]*dT*dA*eG*eG*e[5mC]*eT*e[5mC]; antisense) [compound 144506]” was run?
Its value is 0%.

“144484 (e[5mC]*e[5mC]*eT*eG*eG*dA*dG*dT*dA*dT*dG*dA*dT*dA*d[5mC]*eT*eG*e[5mC]*eT*eG; antisense) [compound 144484]” was tested. Which “% INHIB” value did it give?
Its value is 48%.

For “CTCGCGATACCACAGACTGA (all phosphorothioate, sugars by position and methylation of C not given here; 2'-MOE wings and deoxy gap) [ISIS 144502, 2′-MOE gapmer phosphorothioate antisense oligonucleotide to mouse MTP]”, which “% INHIB” value is on record?
Its value is “at least 30%”.

For “144476 (e[5mC]*e[5mC]*e[5mC]*eA*eG*dA*dG*dA*dT*dA*dT*d[5mC]*dT*dA*d[5mC]*e[5mC]*eT*e[5mC]*eG*eT; antisense) [compound 144476]”, which “% INHIB” value is on record?
Its value is 19%.

With “144477 (e[5mC]*e[5mC]*e[5mC]*eA*eG*d[5mC]*dA*d[5mC]*d[5mC]*dT*dG*dG*dT*dT*dT*eG*e[5mC]*e[5mC]*eG*eT; antisense) [compound 144477]” as the substance, how does the “% INHIB” value read?
Its value is 94%.

For “144496 (e[5mC]*eT*eG*e[5mC]*eA*dA*dT*dT*dA*dA*dG*d[5mC]*d[5mC]*dT*dT*e[5mC]*e[5mC]*eA*eG*e[5mC]; antisense) [compound 144496]”, which “% INHIB” value is on record?
Its value is 40%.

“144481 (eT*eT*e[5mC]*e[5mC]*eA*dG*dT*dG*d[5mC]*dT*d[5mC]*d[5mC]*dG*d[5mC]*d[5mC]*eA*eG*eA*eG*eA; antisense) [compound 144481]” was tested. Which “% INHIB” value did it give?
Its value is 33%.

How did the “% INHIB” value turn out when “144500 (e[5mC]*e[5mC]*e[5mC]*eT*eT*dT*d[5mC]*dA*d[5mC]*d[5mC]*dA*d[5mC]*dG*d[5mC]*dT*eG*eA*e[5mC]*eA*eG; antisense) [compound 144500]” was run?
The value was 34%.

“CACCTGCCACTTGCTTCCCG (all phosphorothioate, sugars by position and methylation of C not given here; 2'-MOE wings and deoxy gap) [ISIS 144479, 2′-MOE gapmer phosphorothioate antisense oligonucleotide to mouse MTP]” was tested. Which “% INHIB” value did it give?
Its value is “at least 30%”.

For “144482 (eG*eA*eA*eG*eT*d[5mC]*d[5mC]*dG*dG*dA*dG*dG*dT*dG*d[5mC]*eT*eG*eG*eA*eT; antisense) [compound 144482]”, which “% INHIB” value is on record?
Its value is 3%.

How did the “% INHIB” value turn out when “CGCTGACAGGGTCGCCGGAT (all phosphorothioate, sugars by position and methylation of C not given here; 2'-MOE wings and deoxy gap) [ISIS 144499, 2′-MOE gapmer phosphorothioate antisense oligonucleotide to mouse MTP]” was run?
Its value is “at least 30%”.

Which “% INHIB” value does the source give for “144492 (eT*eG*e[5mC]*eA*e[5mC]*dA*dA*d[5mC]*dG*dG*dT*dG*dA*dG*d[5mC]*eA*eT*eG*eT*eA; antisense) [compound 144492]” here?
The value was 39%.
